Laboratory results reported in ChEMBL document CHEMBL4806959, “Antagonistic peptides for frizzled-1 and frizzled-2” (2015).
The source made the active and inactive calls. No cut-off for these calls is given here. Residues, ends and D or L forms follow the SMILES beside them.

What was measured:
[1] = biological target: Frizzled-2 (Rattus norvegicus) (UniProt Q08464); experiment: Antagonist activity at Wnt3a-stimulated rat frizzled-2 expressed in CHO cells up to 10 uM incubated for 24 hrs by luciferase reporter gene assay; type: cell-based; details: dose microM <=10, time 24.0 hrs
Frizzled-2 (Rattus norvegicus), sequence (Q08464 29-570 limits assumed): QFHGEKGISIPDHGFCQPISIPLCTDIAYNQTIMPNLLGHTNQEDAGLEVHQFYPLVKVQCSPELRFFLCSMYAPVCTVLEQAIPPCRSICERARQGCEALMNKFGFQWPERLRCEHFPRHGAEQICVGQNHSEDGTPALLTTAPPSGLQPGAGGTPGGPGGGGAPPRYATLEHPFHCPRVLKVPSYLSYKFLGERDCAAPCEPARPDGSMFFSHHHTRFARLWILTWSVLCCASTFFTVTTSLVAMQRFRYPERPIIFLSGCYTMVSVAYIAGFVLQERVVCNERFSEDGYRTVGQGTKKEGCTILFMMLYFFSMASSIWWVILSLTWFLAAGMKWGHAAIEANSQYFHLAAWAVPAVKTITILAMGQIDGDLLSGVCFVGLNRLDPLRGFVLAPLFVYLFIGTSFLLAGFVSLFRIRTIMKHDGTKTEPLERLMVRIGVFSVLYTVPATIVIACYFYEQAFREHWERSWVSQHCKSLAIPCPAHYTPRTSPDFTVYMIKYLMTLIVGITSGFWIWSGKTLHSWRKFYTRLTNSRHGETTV

[2] = biological target: Frizzled-1 (Homo sapiens) (UniProt Q9UP38); experiment: Antagonist activity at Wnt3a-stimulated frizzled-1 (unknown origin) expressed in human HEK293superTOP flash cells at 10 nM incubated for 24 hrs by luciferase reporter gene assay; type: functional, cell-based; details: HEK293
Frizzled-1 (Homo sapiens), sequence (Q9UP38 70-647 limits assumed): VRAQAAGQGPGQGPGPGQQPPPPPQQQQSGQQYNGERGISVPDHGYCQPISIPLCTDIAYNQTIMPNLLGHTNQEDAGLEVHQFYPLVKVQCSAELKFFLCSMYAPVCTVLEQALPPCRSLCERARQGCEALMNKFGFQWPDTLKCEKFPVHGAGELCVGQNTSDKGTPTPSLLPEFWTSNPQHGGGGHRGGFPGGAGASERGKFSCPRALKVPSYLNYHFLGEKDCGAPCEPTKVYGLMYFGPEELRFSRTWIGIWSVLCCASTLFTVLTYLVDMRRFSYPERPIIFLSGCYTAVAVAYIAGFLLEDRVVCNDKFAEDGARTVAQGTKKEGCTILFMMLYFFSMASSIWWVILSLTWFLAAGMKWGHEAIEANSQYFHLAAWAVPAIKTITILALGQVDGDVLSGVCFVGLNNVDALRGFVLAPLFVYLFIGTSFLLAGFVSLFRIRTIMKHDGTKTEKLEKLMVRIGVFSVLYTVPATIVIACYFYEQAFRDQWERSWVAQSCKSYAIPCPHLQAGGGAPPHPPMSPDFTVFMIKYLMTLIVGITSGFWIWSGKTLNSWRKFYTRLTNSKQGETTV

Frizzled-2 = Frizzled-2 (Homo sapiens, UniProt Q14332); experiment: Antagonist activity at Wnt3a-stimulated frizzled-2 (unknown origin) expressed in human HEK293superTOP flash cells at 10 nM incubated for 24 hrs by luciferase reporter gene assay; type: functional, cell-based; details: HEK293
Frizzled-2, sequence (Q14332 24-565 limits assumed): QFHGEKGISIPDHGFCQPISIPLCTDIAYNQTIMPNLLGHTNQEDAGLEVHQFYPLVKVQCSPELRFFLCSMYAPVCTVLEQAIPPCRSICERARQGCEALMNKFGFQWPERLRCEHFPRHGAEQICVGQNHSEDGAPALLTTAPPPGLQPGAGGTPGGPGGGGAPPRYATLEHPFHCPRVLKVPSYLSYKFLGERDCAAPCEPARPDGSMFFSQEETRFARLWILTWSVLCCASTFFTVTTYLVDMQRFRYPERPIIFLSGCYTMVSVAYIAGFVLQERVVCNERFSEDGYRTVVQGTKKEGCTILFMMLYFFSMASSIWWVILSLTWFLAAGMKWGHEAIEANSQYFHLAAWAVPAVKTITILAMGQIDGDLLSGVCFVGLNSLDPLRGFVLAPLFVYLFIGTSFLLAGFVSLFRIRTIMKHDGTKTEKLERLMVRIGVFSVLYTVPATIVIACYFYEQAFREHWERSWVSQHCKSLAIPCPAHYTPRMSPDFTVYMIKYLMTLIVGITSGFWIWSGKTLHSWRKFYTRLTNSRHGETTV

[3] = biological target: Frizzled-1 (Rattus norvegicus) (UniProt Q08463); experiment: Antagonist activity at Wnt3a-stimulated rat frizzled-1 expressed in African green monkey COS7 cells up to 10 uM incubated for 24 hrs by luciferase reporter gene assay; type: cell-based; details: dose microM <=10, time 24.0 hrs
Frizzled-1 (Rattus norvegicus), sequence (Q08463 whole entry): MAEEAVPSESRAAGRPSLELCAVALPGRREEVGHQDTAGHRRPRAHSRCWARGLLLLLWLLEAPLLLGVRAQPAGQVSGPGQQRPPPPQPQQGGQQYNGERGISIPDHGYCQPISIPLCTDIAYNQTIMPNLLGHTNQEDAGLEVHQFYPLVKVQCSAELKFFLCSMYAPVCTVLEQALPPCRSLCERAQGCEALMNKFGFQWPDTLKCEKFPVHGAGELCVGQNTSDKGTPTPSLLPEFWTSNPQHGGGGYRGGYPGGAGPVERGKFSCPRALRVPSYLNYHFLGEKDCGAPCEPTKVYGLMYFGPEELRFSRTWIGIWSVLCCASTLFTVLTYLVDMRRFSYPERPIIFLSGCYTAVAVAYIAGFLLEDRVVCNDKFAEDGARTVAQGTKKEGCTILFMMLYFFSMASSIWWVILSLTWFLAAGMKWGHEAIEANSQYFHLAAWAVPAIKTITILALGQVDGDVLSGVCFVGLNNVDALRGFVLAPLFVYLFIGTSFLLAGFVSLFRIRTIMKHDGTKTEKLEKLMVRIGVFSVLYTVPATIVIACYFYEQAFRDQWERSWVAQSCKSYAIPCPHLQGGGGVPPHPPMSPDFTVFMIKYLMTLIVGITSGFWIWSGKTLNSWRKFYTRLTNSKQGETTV

[4] = biological target: Frizzled-2 (Rattus norvegicus) (UniProt Q08464); experiment: Antagonist activity at Wnt3a-stimulated rat frizzled-2 expressed in African green monkey COS7 cells up to 10 uM incubated for 24 hrs by luciferase reporter gene assay; type: cell-based; details: dose microM <=10, time 24.0 hrs
[5] = biological target: Frizzled-1 (Rattus norvegicus) (UniProt Q08463); experiment: Antagonist activity at Wnt3a-stimulated rat frizzled-1 expressed in CHO cells up to 10 uM incubated for 24 hrs by luciferase reporter gene assay; type: cell-based; details: dose microM <=10, time 24.0 hrs

Compound | inhibition [1] | inhibition [2] | inhibition (Frizzled-2) | inhibition [3] | inhibition [4] | inhibition [5]
CSCC[C@H](NC(=O)CNC(=O)[C@H](CCC(=O)O)NC(=O)[C@H](CO)NC(=O)[C@@H](NC(=O)[C@H](CCCCN)NC(=O)[C@H](CC(N)=O)NC(=O)[C@H](C)NC(C)=O)[C@@H](C)O)C(=O)N[C@@H](CC(=O)O)C(=O)NCC(=O)N[C@@H](CS)C(=O)N[C@@H](CCC(=O)O)C(=O)N[C@@H](CC(C)C)C(N)=O (Ac-ANKTSEGMDGCEL-NH2) | inactive | inactive | inactive | inactive | inactive | inactive
CSCC[C@H](NC(=O)CNC(=O)[C@H](CCC(=O)O)NC(=O)[C@H](CO)NC(=O)[C@H](C)NC(=O)[C@H](CCCCN)NC(=O)[C@H](CC(N)=O)NC(=O)[C@H](CS)NC(C)=O)C(=O)N[C@@H](CC(=O)O)C(=O)NCC(=O)N[C@@H](CS)C(=O)N[C@@H](CCC(=O)O)C(=O)N[C@@H](CC(C)C)C(N)=O (Ac-CNKASEGMDGCEL-NH2) | inactive | inactive | inactive | inactive | inactive | inactive
CSCC[C@H](NC(=O)CNC(=O)[C@H](CCC(=O)O)NC(=O)[C@H](C)NC(=O)[C@@H](NC(=O)[C@H](CCCCN)NC(=O)[C@H](CC(N)=O)NC(=O)[C@H](CS)NC(C)=O)[C@@H](C)O)C(=O)N[C@@H](CC(=O)O)C(=O)NCC(=O)N[C@@H](CS)C(=O)N[C@@H](CCC(=O)O)C(=O)N[C@@H](CC(C)C)C(N)=O (Ac-CNKTAEGMDGCEL-NH2) | inactive | inactive | inactive | inactive | inactive | inactive
CSCC[C@H](NC(=O)CNC(=O)[C@H](C)NC(=O)[C@H](CO)NC(=O)[C@@H](NC(=O)[C@H](CCCCN)NC(=O)[C@H](CC(N)=O)NC(=O)[C@H](CS)NC(C)=O)[C@@H](C)O)C(=O)N[C@@H](CC(=O)O)C(=O)NCC(=O)N[C@@H](CS)C(=O)N[C@@H](CCC(=O)O)C(=O)N[C@@H](CC(C)C)C(N)=O (Ac-CNKTSAGMDGCEL-NH2) | inactive | inactive | inactive | inactive | inactive | inactive
CSCC[C@H](NC(=O)[C@H](C)NC(=O)[C@H](CCC(=O)O)NC(=O)[C@H](CO)NC(=O)[C@@H](NC(=O)[C@H](CCCCN)NC(=O)[C@H](CC(N)=O)NC(=O)[C@H](CS)NC(C)=O)[C@@H](C)O)C(=O)N[C@@H](CC(=O)O)C(=O)NCC(=O)N[C@@H](CS)C(=O)N[C@@H](CCC(=O)O)C(=O)N[C@@H](CC(C)C)C(N)=O (Ac-CNKTSEAMDGCEL-NH2) | inactive | inactive | inactive | inactive | inactive | inactive
CC(=O)N[C@@H](CS)C(=O)N[C@@H](CC(N)=O)C(=O)N[C@@H](CCCCN)C(=O)N[C@H](C(=O)N[C@@H](CO)C(=O)N[C@@H](CCC(=O)O)C(=O)NCC(=O)N[C@@H](C)C(=O)N[C@@H](CC(=O)O)C(=O)NCC(=O)N[C@@H](CS)C(=O)N[C@@H](CCC(=O)O)C(=O)N[C@@H](CC(C)C)C(N)=O)[C@@H](C)O (Ac-CNKTSEGADGCEL-NH2) | inactive | inactive | inactive | inactive | inactive | inactive
CSCC[C@H](NC(=O)CNC(=O)[C@H](CCC(=O)O)NC(=O)[C@H](CO)NC(=O)[C@@H](NC(=O)[C@H](CCCCN)NC(=O)[C@H](CC(N)=O)NC(=O)[C@H](CS)NC(C)=O)[C@@H](C)O)C(=O)N[C@@H](C)C(=O)NCC(=O)N[C@@H](CS)C(=O)N[C@@H](CCC(=O)O)C(=O)N[C@@H](CC(C)C)C(N)=O (Ac-CNKTSEGMAGCEL-NH2) | inactive | inactive | inactive | inactive | inactive | inactive
CSCC[C@H](NC(=O)CNC(=O)[C@H](CCC(=O)O)NC(=O)[C@H](CO)NC(=O)[C@@H](NC(=O)[C@H](CCCCN)NC(=O)[C@H](CC(N)=O)NC(=O)[C@H](CS)NC(C)=O)[C@@H](C)O)C(=O)N[C@@H](CC(=O)O)C(=O)NCC(=O)N[C@@H](C)C(=O)N[C@@H](CCC(=O)O)C(=O)N[C@@H](CC(C)C)C(N)=O (Ac-CNKTSEGMDGAEL-NH2) | inactive | inactive | inactive | inactive | inactive | inactive
CSCC[C@H](NC(=O)CNC(=O)[C@H](CCC(=O)O)NC(=O)[C@H](CO)NC(=O)[C@@H](NC(=O)[C@H](CCCCN)NC(=O)[C@H](CC(N)=O)NC(=O)[C@H](CS)NC(C)=O)[C@@H](C)O)C(=O)N[C@@H](CC(=O)O)C(=O)NCC(=O)N[C@@H](CS)C(=O)N[C@@H](C)C(=O)N[C@@H](C)C(N)=O (Ac-CNKTSEGMDGCAA-NH2) | inactive | inactive | inactive | inactive | inactive | inactive
CSCC[C@H](NC(=O)CNC(=O)[C@H](CCC(=O)O)NC(=O)[C@H](CO)NC(=O)[C@@H](NC(=O)[C@H](CCCCN)NC(=O)[C@H](CC(N)=O)NC(=O)[C@H](CS)NC(C)=O)[C@@H](C)O)C(=O)N[C@@H](CC(=O)O)C(=O)NCC(=O)N[C@@H](CS)C(=O)N[C@@H](CCC(=O)O)C(=O)N[C@@H](C)C(N)=O (Ac-CNKTSEGMDGCEA-NH2) | inactive | inactive | inactive | inactive | inactive | inactive

Second part, the compound after the results:

inhibition [1] | inhibition [2] | inhibition (Frizzled-2) | inhibition [3] | inhibition [4] | inhibition [5] | Compound
inactive | inactive | inactive | inactive | inactive | inactive | CSCC[C@H](NC(=O)CNC(=O)[C@H](CCC(=O)O)NC(=O)[C@H](CO)NC(=O)[C@@H](NC(=O)[C@H](CCCCN)NC(=O)[C@H](C)NC(=O)[C@H](CS)NC(C)=O)[C@@H](C)O)C(=O)N[C@@H](CC(=O)O)C(=O)NCC(=O)N[C@@H](CS)C(=O)N[C@@H](CCC(=O)O)C(=O)N[C@@H](CC(C)C)C(N)=O (Ac-CAKTSEGMDGCEL-NH2)
inactive | inactive | inactive | inactive | inactive | inactive | CSCC[C@H](NC(=O)CNC(=O)[C@H](CCC(=O)O)NC(=O)[C@H](CO)NC(=O)[C@@H](NC(=O)[C@H](C)NC(=O)[C@H](CC(N)=O)NC(=O)[C@H](CS)NC(C)=O)[C@@H](C)O)C(=O)N[C@@H](CC(=O)O)C(=O)NCC(=O)N[C@@H](CS)C(=O)N[C@@H](CCC(=O)O)C(=O)N[C@@H](CC(C)C)C(N)=O (Ac-CNATSEGMDGCEL-NH2)
inactive | inactive | inactive | inactive | inactive | inactive | CSCC[C@H](NC(=O)[C@H](C)NC(=O)[C@H](CCC(=O)O)NC(=O)[C@H](CO)NC(=O)[C@H](C)NC(=O)[C@H](CCCCN)NC(=O)[C@H](CC(N)=O)NC(=O)[C@H](CS)NC(C)=O)C(=O)N[C@@H](C)C(=O)NCC(=O)N[C@@H](CS)C(=O)N[C@@H](CCC(=O)O)C(=O)N[C@@H](CC(C)C)C(N)=O (Ac-CNKASEAMAGCEL-NH2)
inactive | inactive | inactive | inactive | inactive | inactive | CSCC[C@H](NC(=O)CNC(=O)[C@H](CCC(=O)O)NC(=O)[C@H](CO)NC(=O)[C@@H](NC(=O)[C@H](CCCCN)NC(=O)[C@H](CC(N)=O)NC(=O)[C@H](CS)NC(C)=O)[C@@H](C)O)C(=O)N[C@@H](CC(=O)O)C(=O)N[C@@H](C)C(=O)N[C@@H](CS)C(=O)N[C@@H](CCC(=O)O)C(=O)N[C@@H](CC(C)C)C(N)=O (Ac-CNKTSEGMDACEL-NH2)
inactive | inactive | inactive | inactive | inactive | inactive | CSCC[C@H](NC(=O)CNC(=O)[C@H](CCC(=O)O)NC(=O)[C@H](CO)NC(=O)[C@@H](NC(=O)[C@H](CCCCN)NC(=O)[C@H](CC(N)=O)NC(=O)[C@H](CS)NC(C)=O)[C@@H](C)O)C(=O)N[C@@H](CC(=O)O)C(=O)NCC(=O)N[C@@H](CS)C(=O)N[C@@H](C)C(=O)N[C@@H](CC(C)C)C(N)=O (Ac-CNKTSEGMDGCAL-NH2)
inactive | inactive | inactive | inactive | inactive | inactive | CC[C@H](C)[C@H](NC(=O)CNC(=O)[C@H](Cc1cnc[nH]1)NC(=O)[C@H](CO)NC(=O)[C@H](CO)NC(=O)[C@@H](NC(=O)[C@H](CC(N)=O)NC(=O)[C@@H](N)CS)C(C)C)C(=O)N[C@@H](CC(=O)O)C(=O)NCC(=O)N[C@@H](CS)C(=O)N[C@@H](CC(=O)O)C(=O)N[C@@H](CC(C)C)C(=O)O (H-CNVSSHGIDGCDL-OH)
